Experimental data published in PubChem BioAssay (NCI).
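Cells were grown in 96-well plates and exposed to each compound for 48 hours at five concentrations; endpoints were interpolated linearly between bracketing concentrations, or set to the highest concentration if not reached. TGI denotes the concentration required for complete inhibition of growth.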

Legend:
Test in all cases: growth of human tumour cells (NCI), 48 h
786-0 renal = system: 786-0 renal
A498 renal = system: A498 renal
A549 NSCLC = system: A549 NSCLC
ACHN renal = system: ACHN renal
CAKI-1 renal = system: CAKI-1 renal
CCRF-CEM leukemia = system: CCRF-CEM leukemia
COLO 205 colon = system: COLO 205 colon
DLD-1 colon = system: DLD-1 colon
DMS 114 small cell lung = system: DMS 114 small cell lung
DMS 273 small cell lung = system: DMS 273 small cell lung
EKVX NSCLC = system: EKVX NSCLC
HCC-2998 colon = system: HCC-2998 colon
HCT-116 colon = system: HCT-116 colon
HCT-15 colon = system: HCT-15 colon
HOP-18 NSCLC = system: HOP-18 NSCLC
HOP-62 NSCLC = system: HOP-62 NSCLC
HOP-92 NSCLC = system: HOP-92 NSCLC
HT29 colon = system: HT29 colon
IGROV1 ovarian = system: IGROV1 ovarian
K-562 leukemia = system: K-562 leukemia
KM12 colon = system: KM12 colon
KM20L2 colon = system: KM20L2 colon
LOX IMVI melanoma = system: LOX IMVI melanoma
LXFL 529 NSCLC = system: LXFL 529 NSCLC
M14 melanoma = system: M14 melanoma
M19-MEL melanoma = system: M19-MEL melanoma
MALME-3M melanoma = system: MALME-3M melanoma
MOLT-4 leukemia = system: MOLT-4 leukemia
NCI-H23 lung = system: NCI-H23 lung
NCI-H460 lung = system: NCI-H460 lung
NCI-H522 lung = system: NCI-H522 lung
OVCAR-3 ovarian = system: OVCAR-3 ovarian
OVCAR-4 ovarian = system: OVCAR-4 ovarian
OVCAR-5 ovarian = system: OVCAR-5 ovarian
OVCAR-8 ovarian = system: OVCAR-8 ovarian
RPMI-8226 leukemia = system: RPMI-8226 leukemia
RXF 393 renal = system: RXF 393 renal
RXF-631 renal = system: RXF-631 renal
SF-268 CNS = system: SF-268 CNS
SF-539 CNS = system: SF-539 CNS
SK-MEL-2 melanoma = system: SK-MEL-2 melanoma
SK-MEL-28 melanoma = system: SK-MEL-28 melanoma
SK-MEL-5 melanoma = system: SK-MEL-5 melanoma
SK-OV-3 ovarian = system: SK-OV-3 ovarian
SN12C renal = system: SN12C renal
SNB-19 CNS = system: SNB-19 CNS
SNB-75 CNS = system: SNB-75 CNS
SNB-78 CNS = system: SNB-78 CNS
SW-620 colon = system: SW-620 colon
TK-10 renal = system: TK-10 renal
U251 CNS = system: U251 CNS
UACC-257 melanoma = system: UACC-257 melanoma
UACC-62 melanoma = system: UACC-62 melanoma
UO-31 renal = system: UO-31 renal
XF 498 CNS = system: XF 498 CNS
HL-60(TB) leukemia = system: HL-60(TB) leukemia
NCI-H226 lung = system: NCI-H226 lung
SF-295 CNS = system: SF-295 CNS
SR leukemia = system: SR leukemia

Compound: O=C(N/C(=C\c1c(O)ccc2ccccc12)c1nc2ccccc2[nH]1)c1ccccc1
- TGI (786-0 renal): > 100 µM
- TGI (A498 renal): > 100 µM
- TGI (A549 NSCLC): > 100 µM
- TGI (ACHN renal): > 100 µM
- TGI (CAKI-1 renal): > 100 µM
- TGI (CCRF-CEM leukemia): > 100 µM
- TGI (COLO 205 colon): > 100 µM
- TGI (DLD-1 colon): > 100 µM
- TGI (DMS 114 small cell lung): > 100 µM
- TGI (DMS 273 small cell lung): > 100 µM
- TGI (EKVX NSCLC): > 100 µM
- TGI (HCC-2998 colon): > 100 µM
- TGI (HCT-116 colon): > 100 µM
- TGI (HCT-15 colon): > 100 µM
- TGI (HOP-18 NSCLC): > 100 µM
- TGI (HOP-62 NSCLC): 76.1 µM
- TGI (HOP-92 NSCLC): > 100 µM
- TGI (HT29 colon): > 100 µM
- TGI (IGROV1 ovarian): > 100 µM
- TGI (K-562 leukemia): > 100 µM
- TGI (KM12 colon): > 100 µM
- TGI (KM20L2 colon): > 100 µM
- TGI (LOX IMVI melanoma): > 100 µM
- TGI (LXFL 529 NSCLC): > 100 µM
- TGI (M14 melanoma): > 100 µM
- TGI (M19-MEL melanoma): > 100 µM
- TGI (MALME-3M melanoma): > 100 µM
- TGI (MOLT-4 leukemia): > 100 µM
- TGI (NCI-H23 lung): > 100 µM
- TGI (NCI-H460 lung): > 100 µM
- TGI (NCI-H522 lung): > 100 µM
- TGI (OVCAR-3 ovarian): > 100 µM
- TGI (OVCAR-4 ovarian): > 100 µM
- TGI (OVCAR-5 ovarian): > 100 µM
- TGI (OVCAR-8 ovarian): > 100 µM
- TGI (RPMI-8226 leukemia): > 100 µM
- TGI (RXF 393 renal): 47.7 µM
- TGI (RXF-631 renal): > 100 µM
- TGI (SF-268 CNS): > 100 µM
- TGI (SF-539 CNS): > 100 µM
- TGI (SK-MEL-2 melanoma): > 100 µM
- TGI (SK-MEL-28 melanoma): > 100 µM
- TGI (SK-MEL-5 melanoma): > 100 µM
- TGI (SK-OV-3 ovarian): > 100 µM
- TGI (SN12C renal): > 100 µM
- TGI (SNB-19 CNS): > 100 µM
- TGI (SNB-75 CNS): 45.6 µM
- TGI (SNB-78 CNS): > 100 µM
- TGI (SW-620 colon): > 100 µM
- TGI (TK-10 renal): > 100 µM
- TGI (U251 CNS): > 100 µM
- TGI (UACC-257 melanoma): > 100 µM
- TGI (UACC-62 melanoma): > 100 µM
- TGI (UO-31 renal): > 100 µM
- TGI (XF 498 CNS): > 100 µM

Compound: C[N+](C)=c1ccc2nc3c(ccc4ccccc43)oc-2c1
- TGI (786-0 renal): 28.9 µM
- TGI (A498 renal): 32.6 µM
- TGI (A549 NSCLC): 37.1 µM
- TGI (ACHN renal): 26.7 µM
- TGI (CAKI-1 renal): 28.9 µM
- TGI (CCRF-CEM leukemia): 8.53 µM
- TGI (COLO 205 colon): > 57.9 µM
- TGI (DLD-1 colon): 21.1 µM
- TGI (DMS 114 small cell lung): 54.4 µM
- TGI (DMS 273 small cell lung): 39.2 µM
- TGI (EKVX NSCLC): 37.3 µM
- TGI (HCC-2998 colon): 37.7 µM
- TGI (HCT-116 colon): 20.3 µM
- TGI (HCT-15 colon): 34.6 µM
- TGI (HL-60(TB) leukemia): 6.32 µM
- TGI (HOP-18 NSCLC): 23.6 µM
- TGI (HOP-62 NSCLC): 34.2 µM
- TGI (HOP-92 NSCLC): 32.7 µM
- TGI (HT29 colon): 29.6 µM
- TGI (IGROV1 ovarian): 17.2 µM
- TGI (K-562 leukemia): 9.39 µM
- TGI (KM12 colon): 32.2 µM
- TGI (KM20L2 colon): 27.1 µM
- TGI (LOX IMVI melanoma): 15.4 µM
- TGI (LXFL 529 NSCLC): 19.4 µM
- TGI (M14 melanoma): 24.7 µM
- TGI (M19-MEL melanoma): 12.5 µM
- TGI (MALME-3M melanoma): 26.1 µM
- TGI (MOLT-4 leukemia): 20.4 µM
- TGI (NCI-H226 lung): 33.5 µM
- TGI (NCI-H23 lung): 27.2 µM
- TGI (NCI-H460 lung): 37.7 µM
- TGI (NCI-H522 lung): 8.07 µM
- TGI (OVCAR-3 ovarian): 14 µM
- TGI (OVCAR-4 ovarian): 26.3 µM
- TGI (OVCAR-5 ovarian): 37 µM
- TGI (OVCAR-8 ovarian): 26 µM
- TGI (RPMI-8226 leukemia): > 64.7 µM
- TGI (RXF 393 renal): 26 µM
- TGI (RXF-631 renal): 20.8 µM
- TGI (SF-268 CNS): 29.7 µM
- TGI (SF-295 CNS): 29 µM
- TGI (SF-539 CNS): 32.2 µM
- TGI (SK-MEL-2 melanoma): 36.6 µM
- TGI (SK-MEL-28 melanoma): 28.4 µM
- TGI (SK-MEL-5 melanoma): 27.5 µM
- TGI (SK-OV-3 ovarian): 33.5 µM
- TGI (SN12C renal): 31.8 µM
- TGI (SNB-19 CNS): 31.6 µM
- TGI (SNB-75 CNS): 32.5 µM
- TGI (SNB-78 CNS): 20.8 µM
- TGI (SR leukemia): > 100 µM
- TGI (SW-620 colon): 10.5 µM
- TGI (TK-10 renal): 31.1 µM
- TGI (U251 CNS): 29.5 µM
- TGI (UACC-257 melanoma): 16.4 µM
- TGI (UACC-62 melanoma): 16.3 µM
- TGI (UO-31 renal): 31.5 µM
- TGI (XF 498 CNS): 27.4 µM
